# From paper PMC8438204, “Unraveling the Thermodynamics of Ultra-tight Binding of Intrinsically Disordered Proteins” (Frontiers in Molecular Biosciences, 2021)
# Read-outs that look alike come from different tables or passages of the source. Marks after values point to notes of the source that are not given here.
# Legend:
# HigB2 toxin [1] = target: T1, HigB2 toxin (Vibrio cholerae serotype O1, UniProt Q9KMA6); assay: Competition ITC (global fit of direct and competition titrations with nanobody-HigB2 complex); assay type: binding; design: made in house; conditions: for ΔG (association): competition ITC (Nb6/Nb10), VP-ITC, 4 µM HigB2; for ΔG (association) / ΔH (association) / −TΔS (association): 20 mM sodium phosphate pH 7.5, 150 mM NaCl, three replicates
# T1 sequence (Q9KMA6 1-110): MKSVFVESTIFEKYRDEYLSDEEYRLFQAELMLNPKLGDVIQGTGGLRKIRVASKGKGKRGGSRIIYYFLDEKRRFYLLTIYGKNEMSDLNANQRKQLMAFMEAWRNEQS
# CcdB2 = conditions: ref Drobnak et al., 2013, cited from earlier work
# Protocol: Supplement DataSheet1.docx, table 1: Table S1. Thermodynamic parameters and structural properties of the complexes. All parameters are reported at T = 25°C. | column: Thermodynamic parameters || Nonetheless, a handful of examples of IDP binders with ultra-high affinity have been characterized to date. […] Complexes are ordered according to the degree of energy optimization as estimated by the ΔH bind/ASAint values. For the HigA2_3-23-HigB2 complex the degree of energy optimization is similar to one observed for the pairs of globular high affinity binders (Supplementary Table S1, Figure 3A). […] The high affinit ...
# [2] = system: E9-Im9 (colicin DNase - immunity protein); conditions: ref Keeble et al., 2006, cited from earlier work
# Protocol: Supplement DataSheet1.docx, table 1: Table S1. Thermodynamic parameters and structural properties of the complexes. All parameters are reported at T = 25°C. | column: Thermodynamic parameters
# HigB2 toxin [3] = target: T1, HigB2 toxin; conditions: full-length HigA2; temperature-dependent ITC; ref Hadži et al., 2017a; cited from earlier work
# [4] = 25°C, competition ITC, listed as Full-length HigA2
compound,measurement,setting,value
CC(C)C[C@H](NC(=O)[C@H](C)NC(=O)[C@H](CO)NC(=O)[C@H](CO)NC(=O)[C@H](CC(C)C)NC(=O)[C@H](CCC(=O)O)NC(=O)[C@H](C)NC(=O)[C@H](Cc1ccccc1)NC(=O)[C@H](CC(C)C)NC(=O)[C@H](CC(=O)O)NC(=O)[C@H](CCCNC(=N)N)NC(=O)[C@@H](N)CC(N)=O)C(=O)N[C@H](C(=O)N[C@@H](CCC(=O)O)C(=O)N[C@@H](C)C(=O)N[C@@H](CCCCN)C(=O)N[C@@H](CCC(N)=O)C(=O)N[C@@H](Cc1c[nH]cn1)C(=O)N[C@@H](CO)C(=O)N[C@@H](CCC(=O)O)C(=O)NCC(=O)N[C@@H](Cc1c[nH]c2ccccc12)C(=O)O)C(C)C [HigA2_3-23],Kd,HigB2 toxin [1],3 pM
"CcdA37-72 (RRLRAERWKAENQEGMAEVARFIEMNGSFADENRDW; UniProt P62552 37-72, looked up, fragment)",-TΔS (binding),"CcdB2; 25°C, binding contribution",-0.5 kcal/mol
same,ΔG (binding),"CcdB2; 25°C, binding contribution",-19.4 kcal/mol
same,ΔH (binding),"CcdB2; 25°C, binding contribution",-18.9 kcal/mol
same,-TΔS (folding),"CcdB2; 25°C, folding contribution",20.4 kcal/mol
same,ΔG (folding),"CcdB2; 25°C, folding contribution",3.8 kcal/mol
same,ΔH (folding),"CcdB2; 25°C, folding contribution",-16.6 kcal/mol
same,-TΔS (association),CcdB2; 25°C,19.9 ± 0.3 kcal/mol
same,ΔG (association),CcdB2; 25°C,-15.6 ± 0.1 kcal/mol
same,ΔH (association),CcdB2; 25°C,-35.5 ± 0.2 kcal/mol
same,ΔCp (association),CcdB2,-0.63 ± 0.02 kcal mol^-1 K^-1
E9-Im9,-TΔS,[2]; 25°C,-8.1 ± 0.5 kcal/mol
same,ΔG,[2]; 25°C,-18.6 ± 0.1 kcal/mol
same,ΔCp,[2],-0.45 kcal mol^-1 K^-1
HigA2,ΔG (association),HigB2 toxin [1]; 25°C,-14.7 kcal/mol
same,ΔG (association),"HigB2 toxin [1]; 25°C, listed as Full-length HigA2",-14.7 ± 0.9 kcal/mol
same,ΔH (association),"HigB2 toxin [1]; 25°C, competition ITC",-31.5 kcal/mol
same,−TΔS (association),"HigB2 toxin [1]; 25°C, competition ITC",16.8 kcal/mol
same,ΔH (association),HigB2 toxin [1]; [4],-31.5 ± 1.0 kcal/mol
same,−TΔS (association),HigB2 toxin [1]; [4],16.8 ± 1.9 kcal/mol
same,Kd,"HigB2 toxin [1]; 25°C, competition ITC, value given in abstract, introduction, discussion and Figure 4 under the name HigA2, read-out: KD stated for HigA2-HigB2",3 pM
same,ΔCp (association),HigB2 toxin [3],−0.95^a kcal mol^−1 K^-1
